“Also recorded” adds a separate entry of the source.
What was measured:
CI-deficient fibroblasts = assay: Cellular morphology by phase-contrast microscopy; assay type: cell-based, human; settings: vs untreated
From the text: (§1) Fibroblasts in tissue culture were visualized by phase-contrast microscopy with a Leica DM IRB microscope at ×10 magnification, and images were taken with the Hamamatsu ORCA-ER camera.

[1] = test system: COX10-deficient fibroblasts; assay: Cellular morphology by phase-contrast microscopy; assay type: cell-based, human; settings: vs untreated
From the text: as §1

[2] = test system: NGLY1 deficient fibroblasts; assay: Cellular morphology by phase-contrast microscopy; assay type: cell-based, human; settings: NGLY-1 deficient fibroblasts; vs untreated
From the text: as §1

[3] = test system: POLG-deficient fibroblasts; assay: Cellular morphology by phase-contrast microscopy; assay type: cell-based, human; settings: vs untreated
From the text: as §1

[4] = test system: SURF1-deficient fibroblasts; assay: Cellular morphology by phase-contrast microscopy; assay type: cell-based, human; settings: vs DMSO
From the text: as §1

[5] = test system: COX10 deficient fibroblasts; assay: Cell viability (Calcein AM) in siRNA knockdown study; assay type: cell-based, human; settings: PT1 alone and siCNT+PT1 vs DMSO and siAMPK+PT1; FIG. 4B
Protocol: Methods: Cell growth was measured by a fluorometric method using Calcein AM (Anaspec). Mitochondrial stressor media was removed, wells washed with PBS and then incubated with 500 ul/well of 800 nM Calcein AM in PBS for 30 min at 37 C, 5% CO2. Cell viability was measured by values obtained using a 485 nm excitation with the Flouroskan Ascent Microplate Fluorometer (Thermo Scientific).
To test whether the cellular response to PT1 is a result of AMPK activation itself, or is merely a result of nonspecific interactions, an siRNA knockdown strategy was used. siRNA for PRKAA1 (s101) and a negative control (Life Technologies) were incubated with Hiperfect reagent (Qiagen) in media containing DMEM, 1% Penicillin-Streptomycin (10,000 U/mL) (Life Technologies), 1% glutaMAX (Life Technologies) but no serum and allowed to complex for 10 min at room temperature. […] At the end of the incubation period, the cells were analyzed for levels of AMPK and pAMPK by western blot analysis (see protocol above) or incubated for six additional days with PT1 (or DMSO as untreated control) and assessed for viability by Calcein AM. COX10-deficient fibroblasts were treated with PT1 and either siAMPK or siCNT, and responses were evaluated for pAMPK protein expression by western blotting (FIG. 4A), cell viability by Calcein AM fluorescence assay (FIG. 4B), and cell morphology by phase contrast microscopy (FIGS. 4C-4F)

PGC-1α = assay: Gene expression after PT1 treatment; assay type: cell-based, human; settings: 48 hr treatment with PT1; FIG. 5B
[6] = test system: NGLY1 deficient fibroblasts; assay: Oxygen consumption rate (OCR), XF96 extracellular flux analyzer; assay type: cell-based, human; settings: PT1 vs DMSO, FIG. 6C
Protocol: Methods: Oxygen consumption rate (OCR) was measured using an XF96 extracellular flux analyzer (Seahorse Biosciences). Fibroblasts were seeded at 10×10^3 cell/well in 100 ul media containing 8.3 mM glucose and supplemented with 10% fetal bovine serum (FBS) (Fisher Scientific), 1% Penicillin-Streptomycin (10,000 U/mL)(Life Technologies), 1% glutaMAX (Life Technologies), 1% uridine (5 mg/ml) and 1% pyruvate (11 mg/ml) on an XF 96 well plate at 37° C., 5% CO2. The following day the medium was replaced with the mitochondrial stressor media (details above) with or without PT1, A-769662, and AICAR. After 48 hours the stressor media was replaced with 175 μl unbuffered XF base DMEM medium (Fisher Scientific) with the same constituents as the mitochondrial stressor medium and incubated at 37° C. for 30 min for equilibrium before the measurements. OCR Baseline measurements were measured three times, once every five minutes. After the experiment, cell content was estimated by Calcein AM fluorescence intensity (FI) and OCR was calculated as OCR divided by FI.

[7] = test system: sodium iodate (SI) induced AMD model; assay: Sodium iodate (SI) induced AMD model: funduscopy, H&E retinal sections, ONL thickness, ERG; assay type: in vivo, mice
Protocol: Methods: To generate an AMD model, mice were treated with 100 mg/kg of PT1 (or vehicle) 24 hrs and 12 hrs prior to SI (or vehicle) treatment, then treated every 24 hrs for 3 days post-SI. Both PT1 and SI were delivered by intraperitoneal (IP) injections and animals were phenotyped 3 days post-SI administration. Mice were anesthetized and their pupils dilated using 1% atropine sulfate, 2.5% phenylephrine hydrochloride, and 0.5% proparacaine hydrochloride. Funduscopy was performed using the Micron III small animal retinal imaging AD camera (Phoenix Research Laboratories, INC). Retinal function was evaluated by recording of dark- and light-adapted ERG (Espion E2 System, Diagnosys LLC). Mice were dark adapted overnight before ERG recording, and all procedures were performed in the dark or under dim red light. Mice were anesthetized and their pupils dilated as described above. For the ERG recordings, electrodes were placed on the center of cornea. A ground needle electrode was placed in the base of the tail, and reference needle electrode was placed subdermally between the eyes. The a-wave amplitude was measured from the baseline to the trough of the a-wave, and b-wave amplitude was measured from the trough of the a-wave to the peak of the b-wave.

## Cc1cc(-c2ccc(C=C3SC(=S)N(c4ccc(Cl)c(C(=O)O)c4)C3=O)o2)c([N+](=O)[O-])cc1C [PT1]
CI-deficient fibroblasts
  cellular morphology: cell morphology improved
[1]
  cellular morphology: cell morphology improved
[2]
  cellular morphology: cell morphology improved
[3]
  cellular morphology: cell morphology improved
[4]
  cellular morphology: improved cellular morphology; also recorded: cell morphology improved
[5]
  cell viability: increased viability
PGC-1α
  increase in expression of PGC-1α: 2.4 fold
[6]
  improvement in basal respiration (basal OCR): 16%
[7]; +SI, +PT1 vs +SI, 100 mg/kg IP, FIG. 9A, 100 mg/kg
  funduscopy, signs of retinal degeneration (white deposits): improved signs of retinal degeneration; also recorded: Fewer white deposits
[7]; +SI, +PT1 vs +SI, FIG. 9B
  H&E retinal sections: ONL thinning: protection against ONL thinning; also recorded: protects against ONL thinning
  H&E retinal sections: melanin debris: decreases melanin debris
  H&E retinal sections: photoreceptor IS/OS morphology: prevents alterations in photoreceptor IS/OS morphology
[7]; +SI, +PT1 vs +SI, FIG. 9C
  ONL thickness: greater thickness; also recorded: significantly improved
[7]; +SI, +PT1 vs +SI, FIG. 9D
  electroretinography, rod responses (scotopic a-wave and b-wave): improved electrical response; also recorded: significantly increased rod responses
[7]; −SI, +PT1 vs −SI
  ONL thickness, PT1 treatment alone: does not alter ONL thickness
  funduscopy, PT1 treatment alone: similar, normal tissue; also recorded: does not alter funduscopy results

— patent US12377077B2, “Methods and formulations to treat mitochondrial dysfunction” (The Board of Trustees of the Leland Stanford Junior …, priority 2018, dated 2025)
